The values that follow come from PMC12669040, “Tumour-specific STING agonist synthesis via a two-component prodrug system” (Nature Chemistry, 2025).

Several values for one entry are separate records, joined by “and”; a condition that tells them apart may be missing. Equal entries are not always repeated.

Data set [1] deals with non-tumour zebrafish larvae. The data set can be described thus: Maximum tolerated concentration (MTC) on non-tumour zebrafish larvae. It is filed as in vivo, zebrafish (Danio rerio). The procedure:
Extended Data Fig. 7 Additional zebrafish experiment data. a MTC of β-GlcA-N1/E4 treatments on non-tumor zebrafish larvae. […] Toxicity was assessed daily by counting the total number of dead larvae and checking for the presence of morphologic changes such cardiac edemas or curved tails. Control groups were treated with the highest matched DMSO concentration (0.04%, v/v). b Left: representative image of phagocytosis in a xenograft treated with β-GlcA-N1/E4 and β-glucuronidase at 2dpi in Tg(mpeg1:mcherry-F). Each yellow arrow indicates a phagocytic event. Right: n° of phagocytic events at 2dpi. Data are presented as mean ± SEM. Statistical analysis follows that of Fig. 5. Source data

Data set [2] can be described thus: Haematotoxicity, CT26mβGUS model. It is filed as in vivo, BALB/c mice. The arrangement: WBC / RBC: unit not given here. The source says:
MCV: Mean Corpuscular Volume; MCH: Mean Corpuscular Haemoglobin; WBC: White Blood Cell Count; PLT: Platelet Count; RDW-CV: Red Cell Distribution Width - Coefficient of Variation; MPV: Mean Platelet Volume. RBC: red blood cell count; HGB: haemoglobin; HCT: haematocrit; MCV: Mean Corpuscular Volume; MCH: Mean Corpuscular Haemoglobin; WBC: White Blood Cell Count; PLT: Platelet Count; RDW-CV: Red Cell Distribution Width - Coefficient of Variation; MPV: Mean Platelet Volume. […] Source data

Where [3] appears, read: Day0, individual mice, in % (unit assumed).
Setting [4] is: Day0, individual mice, in pg (unit assumed).
Setting [5] is: Day5, individual mice, in % (unit assumed).
[6] abbreviates: Day5, individual mice, in fL (unit assumed).
[7] abbreviates: Day5, individual mice, in g/dL (unit assumed).

As for `COc1cc2cc(C(=O)CCC(=O)O)sc2cc1OC` [MSA2], the “MSA2 MTC, event per larva (0/1)” value in data set [1] (15 μM, day 3) came out at 0; in data set [1] (75 μM, day 1), 0; in data set [1] (75 μM, day 3), 1. Besides, the “MSA2 MTC, survival event code per larva” value in data set [1] (15 μM, Days 3, one cell per larva (0/1 code)) amounted to 0; in data set [1] (75 μM, Days 3, one cell per larva (0/1 code)) it was 0; in data set [1] (150 μM, Days 3, one cell per larva (0/1 code)), 0. For the same molecule, the HGB was 16.5 and 15.6 (2×) and 14.5 in data set [2] (Day0, individual mice); 14.9 and 12.4 and 14.8 and 11.8 in data set [2] (setting [7]). For the same molecule, the MPV in data set [2] (Day0, individual mice) was 6.5 and 7.1 and 7.9; in data set [2] (Day5, individual mice) it was 6.6 and 7.6 (2×) and 6.8. In addition, the PLT was 1210 and 892 and 696 and 576 in data set [2] (Day0, individual mice); 1244 and 920 and 808 and 855 in data set [2] (Day5, individual mice). In addition, the RBC in data set [2] (Day0, individual mice) is 10.94 and 10.54 and 10.66 and 9.7; in data set [2] (Day5, individual mice), 10 and 8.31 and 9.87 and 7.92. The RDW-CV is 14.4 and 15.1 (2×) and 15.3 in data set [2] (Day0, individual mice); 16 and 14.5 and 14.4 (2×) in data set [2] (Day5, individual mice). Besides, the WBC in data set [2] (Day0, individual mice) was 7.1 and 7.7 and 8.8 and 8.2; in data set [2] (Day5, individual mice), 8.6 and 8 and 9.3 and 7.4. Further, the HCT was 53.4 and 52.7 and 52.8 and 48.8 in data set [2] (setting [3]); 51.7 and 43.1 and 50.2 and 40.6 in data set [2] (setting [5]). Further, the MCV in data set [2] (Day0, individual mice, in fL (unit assumed)) is 48.8 and 50 and 49.5 and 50.3; in data set [2] (setting [6]) it was 51.7 and 51.9 and 50.9 and 51.3. Besides, the MCH in data set [2] (setting [4]) is 15.1 and 14.8 and 14.6 and 14.9; in data set [2] (Day5, individual mice) it was 14.9 pg (3×) and 15 pg. Besides, in data set [2] (MSA2 5 mg kg^−1 IT), the “red blood cells, haemoglobin and haematocrit” value is “modest decreases”.

`COc1cc2sc(C(=O)CCC(=O)O)cc2cc1SCCSc1cc2cc(C(=O)CCC(=O)O)sc2cc1OC` [SC2S]: the “SC2S MTC, event per larva (0/1)” value is given as 1 in data set [1] (0.62 μM, day 3); 0 in data set [1] (3.1 μM, day 1); 0 in data set [1] (3.1 μM, day 3). Moreover, in data set [1] (6.2 μM, Days 3, one cell per larva (0/1 code)), the “SC2S MTC, survival event code per larva” value was 1. In addition, the MCV was 55 and 51.6 and 50 (2×) in data set [2] (Day0, individual mice); 51.1 and 50.3 and 51.3 and 51 in data set [2] (setting [6]). Besides, the MPV in data set [2] (Day0, individual mice) is 8 and 7.6 and 6.7 and 7.2; in data set [2] (Day5, individual mice), 7.6 (2×) and 6.6. Also, the PLT is 670 and 896 and 1143 and 870 in data set [2] (Day0, individual mice); 155 and 541 and 770 and 1292 in data set [2] (Day5, individual mice). Moreover, the RBC is 9.65 and 10.31 and 10.59 and 10.89 in data set [2] (Day0, individual mice); 8.22 and 9.33 and 9.82 and 10.19 in data set [2] (Day5, individual mice). The WBC in data set [2] (Day0, individual mice) was 11 and 10 and 8.7 and 8.4; in data set [2] (Day5, individual mice) it was 9.2 and 10.4 and 6.6 (2×). Besides, the HCT was 53.1 and 53.2 and 53 and 54.5 in data set [2] (setting [3]); 42 and 49.9 and 50.4 and 52 in data set [2] (setting [5]). Also, the RDW-CV in data set [2] (setting [3]) is 14.7 and 15.1 and 14.8 and 15; in data set [2] (setting [5]), 14 and 14.3 and 16.7 and 15.7. For the same molecule, the HGB is 14.6 and 15.3 and 15.8 and 16.3 in data set [2] (Day0, individual mice, in g/dL (unit assumed)); 12.4 and 13.7 and 14.9 and 15.5 in data set [2] (setting [7]). The MCH is 15.1 and 14.8 and 14.9 and 15 in data set [2] (setting [4]); 15.1 and 14.7 and 15.2 (2×) in data set [2] (Day5, individual mice).
